Tests used:
hEP4/Gqs5 = target: T1, hEP4/Gqs5 (Homo sapiens, UniProt P35408); assay: FLIPR calcium signal, hEP4/Gqs5; type: cell-based; details: HEK-293(EBNA) cells, read-out: Functional EC50 (nM) HEP4
T1 construct: expressed in transfected cells
Description: (§1) HEK-293(EBNA) cells, stably expressing one type or subtype of recombinant human prostaglandin receptors (prostaglandin receptors expressed: hDP/Gqs5; hEP1; hEP2/Gqs5; hEP3A/Gqi5; hEP4/Gqs5; hFP; hIP; hTP), were cultured in 100 mm culture dishes in high-glucose DMEM medium containing 10% fetal bovine serum, 2 mM 1-glutamine, 250 μg/ml geneticin (G418) and 200 μg/ml hygromycin B as selection markers, and 100 units/ml penicillin G, 100 μg/ml streptomycin and 0.25 μg/ml amphotericin B.
(§2) Cells were seeded at a density of 5×10^4 cells per well in Biocoat® Poly-D-lysine-coated black-wall, clear-bottom 96-well plates (Becton-Dickinson) and allowed to attach overnight in an incubator at 37° C. Cells were then washed two times with HBSS-HEPES buffer (Hanks Balanced Salt Solution without bicarbonate and phenol red, 20 mM HEPES, pH 7.4) using a Denley Cellwash plate washer (Labsystems). After 45 minutes of dye-loading in the dark, using the calcium-sensitive dye Fluo-4 AM at a final concentration of 2 μM, plates were washed four times with HBSS-HEPES buffer to remove excess dye leaving 100 μl in each well. Plates were re-equilibrated to 37° C. for a few minutes.
(§3) Cells were excited with an Argon laser at 488 nm, and emission was measured through a 510–570 nm bandwidth emission filter (FLIPR™, Molecular Devices, Sunnyvale, Calif.). Drug solution was added in a 50 μl volume to each well to give the desired final concentration. The peak increase in fluorescence intensity was recorded for each well. On each plate, four wells each served as negative (HBSS-HEPES buffer) and positive controls (standard agonists: BW245C (hDP); PGE2 (hEP1; hEP2/Gqs5; hEP3A/Gqi5; hEP4/Gqs5); PGF2α (hFP); carbacyclin (hIP); U-46619 (hTP), depending on receptor). The peak fluorescence change in each drug-containing well was then expressed relative to the controls.
(§4) Compounds were tested in a high-throughput (HTS) or concentration-response (CoRe) format. In the HTS format, forty-four compounds per plate were examined in duplicates at a concentration of 10^−5 M. To generate concentration-response curves, four compounds per plate were tested in duplicates in a concentration range between 10^−5 and 10^−11 M. The duplicate values were averaged. In either, HTS or CoRe format each compound was tested on at least 3 separate plates using cells from different passages to give an n≧3.

hEP3A/Gqi5 = target: T2, hEP3A/Gqi5 (Homo sapiens, UniProt P43115); assay: FLIPR calcium signal, hEP3A/Gqi5; type: cell-based; details: HEK-293(EBNA) cells, read-out: Functional EC50 (nM) HEP3A
T2 construct: expressed in transfected cells
T2 sequence (P43115 1-390): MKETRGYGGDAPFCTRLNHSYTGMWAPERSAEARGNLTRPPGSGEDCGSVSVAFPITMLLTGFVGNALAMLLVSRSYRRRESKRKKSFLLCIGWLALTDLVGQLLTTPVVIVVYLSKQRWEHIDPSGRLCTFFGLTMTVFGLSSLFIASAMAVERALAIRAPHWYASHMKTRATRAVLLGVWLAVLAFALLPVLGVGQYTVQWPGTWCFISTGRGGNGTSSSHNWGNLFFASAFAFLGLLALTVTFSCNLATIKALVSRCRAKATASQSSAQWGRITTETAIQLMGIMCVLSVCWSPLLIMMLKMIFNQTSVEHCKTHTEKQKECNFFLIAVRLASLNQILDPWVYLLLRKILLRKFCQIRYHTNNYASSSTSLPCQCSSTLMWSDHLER
Description: as §1, §2, §3, §4

HEP4 = target: T3, HEP4 (Homo sapiens, UniProt P35408); assay: Radioligand binding, EP4 receptor; details: competition vs [3H]PGE2 5 nM, HEK-293 cell membranes
T3 construct: expressed in transfected cells; membrane fraction
T3 sequence (P35408 whole entry): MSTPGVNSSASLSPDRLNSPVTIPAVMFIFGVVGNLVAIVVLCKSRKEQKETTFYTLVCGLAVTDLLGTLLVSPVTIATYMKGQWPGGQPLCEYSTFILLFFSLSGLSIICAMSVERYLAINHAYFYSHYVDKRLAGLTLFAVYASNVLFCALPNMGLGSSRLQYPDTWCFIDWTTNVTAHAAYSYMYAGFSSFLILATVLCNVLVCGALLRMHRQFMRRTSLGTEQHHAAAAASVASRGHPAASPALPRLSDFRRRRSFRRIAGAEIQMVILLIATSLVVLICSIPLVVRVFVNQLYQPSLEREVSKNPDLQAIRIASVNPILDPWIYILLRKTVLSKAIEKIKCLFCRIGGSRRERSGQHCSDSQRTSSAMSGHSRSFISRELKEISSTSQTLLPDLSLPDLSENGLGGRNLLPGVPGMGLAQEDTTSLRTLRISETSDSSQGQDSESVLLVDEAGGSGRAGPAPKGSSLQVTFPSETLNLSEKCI
Description: (§5) HEK-293 cells stably expressing the human or feline FP receptor, or EP1, EP2, or EP4 receptors were washed with TME buffer, scraped from the bottom of the flasks, and homogenized for 30 sec using a Brinkman PT 10/35 polytron. TME buffer was added to achieve a final 40 ml volume in the centrifuge tubes (the composition of TME is 100 mM TRIS base, 20 mM MgCl2, […]; 10N HCl is added to achieve a pH of 7.4).
(§6) The cell homogenate was centrifuged at 19000 r.p.m. for 20 min at 4° C. using a Beckman Ti-60 rotor. The resultant pellet was resuspended in TME buffer to give a final 1 mg/ml protein concentration, as determined by Biorad assay. Radioligand binding competition assays vs. [^3H-]17-phenyl PGF2α (5 nM) were performed in a 100 μl volume for 60 min. Binding reactions were started by adding plasma membrane fraction. The reaction was terminated by the addition of 4 ml ice-cold TRIS-HCl buffer and rapid filtration through glass fiber GF/B filters using a Brandel cell harvester. The filters were washed 3 times with ice-cold buffer and oven dried for one hour. Non-specific binding was determined with 10 uM unlabeled 17-phenyl PGF2α.
[^3H-] PGE2 (5 nM; specific activity 180 Ci mmol) was used as the radioligand for EP receptors. Binding studies employing EP1, EP2, EP3, EP4 were performed in duplicate in at least three separate experiments. A 200 μl assay volume was used. Incubations were for 60 min at 25° C. and were terminated by the addition of 4 ml of ice-cold 50 mM TRIS-HCl, followed by rapid filtration through Whatman GF/B filters and three additional 4 ml washes in a cell harvester (Brandel). Non-specific binding determined with 10^−5M of unlabeled PGE2.

hEP1 = target: T4, hEP1 (Homo sapiens, UniProt P34995); assay: FLIPR calcium signal, hEP1; type: cell-based; details: HEK-293(EBNA) cells, read-out: Functional EC50 (nM) HEP1
T4 construct: expressed in transfected cells
T4 sequence (P34995 1-402): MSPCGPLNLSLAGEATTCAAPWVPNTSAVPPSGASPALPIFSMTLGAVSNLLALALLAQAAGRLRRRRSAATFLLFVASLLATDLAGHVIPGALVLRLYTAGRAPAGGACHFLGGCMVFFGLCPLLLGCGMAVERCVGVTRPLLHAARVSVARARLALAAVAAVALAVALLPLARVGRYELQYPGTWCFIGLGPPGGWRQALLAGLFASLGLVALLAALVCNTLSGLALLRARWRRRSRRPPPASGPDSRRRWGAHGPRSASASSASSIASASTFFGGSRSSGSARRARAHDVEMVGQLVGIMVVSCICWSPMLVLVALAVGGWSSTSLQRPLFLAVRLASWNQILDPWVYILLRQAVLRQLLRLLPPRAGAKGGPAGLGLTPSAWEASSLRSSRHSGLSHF
Description: as §1, §2, §3, §4

HEP2 = target: T5, HEP2 (Homo sapiens, UniProt P43116); assay: Radioligand binding, EP2 receptor; details: competition vs [3H]PGE2 5 nM, HEK-293 cell membranes
T5 construct: expressed in transfected cells; membrane fraction
T5 sequence (P43116 whole entry): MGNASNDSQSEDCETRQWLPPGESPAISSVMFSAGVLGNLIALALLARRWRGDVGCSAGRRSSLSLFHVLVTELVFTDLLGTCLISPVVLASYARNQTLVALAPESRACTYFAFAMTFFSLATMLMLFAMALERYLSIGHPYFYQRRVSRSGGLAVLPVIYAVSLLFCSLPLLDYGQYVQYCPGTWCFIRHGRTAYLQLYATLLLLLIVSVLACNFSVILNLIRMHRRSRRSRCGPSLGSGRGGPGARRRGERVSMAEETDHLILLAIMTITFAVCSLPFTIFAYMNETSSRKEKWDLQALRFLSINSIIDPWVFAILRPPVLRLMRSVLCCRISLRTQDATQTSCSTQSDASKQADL
Description: as §5, §6
(§7) [^3H-] PGE2 (5 nM; specific activity 180 Ci mmol) was used as the radioligand for EP receptors. […] Non-specific binding determined with 10^−5M of unlabeled PGE2.

hEP2/Gqs5 = target: T6, hEP2/Gqs5 (Homo sapiens, UniProt P43116); assay: FLIPR calcium signal, hEP2/Gqs5; type: cell-based; details: HEK-293(EBNA) cells, read-out: Functional EC50 (nM) HEP2
T6 construct: expressed in transfected cells
T6 sequence (P43116 whole entry): as above
Description: as §1, §2, §3
Compounds were tested in a high-throughput (HTS) or concentration-response (CoRe) format. […]

hTP = target: T7, hTP (Homo sapiens, UniProt P21731); assay: FLIPR calcium signal, hTP; type: cell-based; details: HEK-293(EBNA) cells, read-out: Functional EC50 (nM) HTP
T7 construct: expressed in transfected cells
T7 sequence (P21731 1-343): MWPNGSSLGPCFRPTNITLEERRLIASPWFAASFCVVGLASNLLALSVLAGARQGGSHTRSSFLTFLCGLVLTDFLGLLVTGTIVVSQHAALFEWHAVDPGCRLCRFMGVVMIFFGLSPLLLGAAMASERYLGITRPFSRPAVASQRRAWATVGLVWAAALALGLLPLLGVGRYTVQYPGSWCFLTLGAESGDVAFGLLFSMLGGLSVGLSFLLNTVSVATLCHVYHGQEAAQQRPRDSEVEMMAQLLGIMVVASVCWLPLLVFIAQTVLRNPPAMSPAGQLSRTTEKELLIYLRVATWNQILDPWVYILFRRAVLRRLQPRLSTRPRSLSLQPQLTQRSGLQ
Description: as §1, §2, §3, §4

HEP3D = target: T8, HEP3D (Homo sapiens, UniProt P43115); assay: Radioligand binding, EP3 receptor; details: competition vs [3H]PGE2 5 nM
T8 sequence (P43115 1-374 isoform P43115-4): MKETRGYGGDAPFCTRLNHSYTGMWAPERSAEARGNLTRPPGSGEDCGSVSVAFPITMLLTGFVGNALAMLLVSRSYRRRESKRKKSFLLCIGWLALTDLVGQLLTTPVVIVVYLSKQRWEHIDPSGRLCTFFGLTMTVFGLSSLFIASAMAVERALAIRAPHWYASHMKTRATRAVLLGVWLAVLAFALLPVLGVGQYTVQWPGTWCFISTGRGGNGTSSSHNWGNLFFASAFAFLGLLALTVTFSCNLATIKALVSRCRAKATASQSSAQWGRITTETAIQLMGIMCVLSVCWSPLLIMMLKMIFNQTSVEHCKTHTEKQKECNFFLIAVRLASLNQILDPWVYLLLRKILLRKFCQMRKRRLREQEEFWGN
Description: as §5, §6, §7

T1 sequence (P35408 whole entry): as the sequence (P35408 whole entry) above

Row | Structure (SMILES) | EC50 (hEP4/Gqs5) [nM] | IC50 (HEP4) [nM] | also measured
1 | C[C@@H]1CC(=O)[C@H](C/C=C\CCCC(=O)O)[C@H]1/C=C/C(O)CCc1sc2ccccc2c1Cl (stereo partly shown) | 153 | 1800 | EC50 (hEP3A/Gqi5): > 10000 nM; EC50 (hEP1): > 10000 nM
2 | COC(=O)CCC/C=C\C[C@H]1C(=O)C[C@@H](C)[C@@H]1/C=C/C(O)CCc1sc2ccccc2c1Cl (stereo partly shown) | > 10000 | > 10000 | 
3 | COC(=O)CCC/C=C\C[C@H]1C(=O)C[C@@H](C(C)C)[C@@H]1/C=C/C(O)CCc1sc2ccccc2c1Cl (stereo partly shown) |  | > 10000 | 
4 | CC(C)[C@@H]1CC(=O)[C@H](C/C=C\CCCC(=O)O)[C@H]1/C=C/C(O)CCc1sc2ccccc2c1Cl (stereo partly shown) | > 10000 | > 10000 | 
5 | CC[C@@H]1CC(=O)[C@H](C/C=C\CCCC(=O)O)[C@H]1/C=C/C(O)CCc1sc2ccccc2c1Cl (stereo partly shown) | 708 | 2100 | 
6 | C=C[C@@H]1CC(=O)[C@H](C/C=C\CCCC(=O)O)[C@H]1/C=C/C(O)CCc1sc2ccccc2c1Cl (stereo partly shown) | 156 | 650 | IC50 (HEP2): > 10000 nM
7 | C=C[C@@H]1CC(=O)[C@H](C/C=C\CCCC(=O)OC)[C@H]1/C=C/C(O)CCc1sc2ccccc2c1Cl (stereo partly shown) | 1700 | > 10000 | 
8 | CC[C@@H]1CC(=O)[C@H](C/C=C\CCCC(=O)OC)[C@H]1/C=C/C(O)CCc1sc2ccccc2c1Cl (stereo partly shown) |  | > 10000 | 
9 | O=C(O)CCC/C=C\C[C@H]1C(=O)C[C@@H](CO)[C@@H]1/C=C/C(O)Cc1cc2ccccc2s1 (single isomer, unassigned) [drawing 36] | > 10000 |  | EC50 (hEP2/Gqs5): > 10000 nM; EC50 (hTP): > 10000 nM; EC50 (hEP3A/Gqi5): > 10000 nM; EC50 (hEP1): > 10000 nM
10 | O=C(O)CCC/C=C\C[C@H]1C(=O)C[C@@H](CO)[C@@H]1/C=C/C(O)Cc1cc2ccccc2s1 (single isomer, unassigned) [drawing 37] | 1770 |  | EC50 (hEP2/Gqs5): > 10000 nM; EC50 (hEP3A/Gqi5): 99 nM; EC50 (hEP1): 9 nM
11 | COC(=O)CCC/C=C\C[C@H]1C(=O)C[C@@H](CO)[C@@H]1/C=C/C(O)CCc1sc2ccccc2c1Cl (stereo partly shown) [drawing 30] | > 10000 |  | 
12 | COC(=O)CCC/C=C\C[C@H]1C(=O)C[C@@H](CO)[C@@H]1/C=C/C(O)CCc1sc2ccccc2c1Cl (stereo partly shown) [drawing 31] | > 10000 |  | 
13 | O=C(O)CCC/C=C\C[C@H]1C(=O)C[C@@H](CO)[C@@H]1/C=C/C(O)CCc1sc2ccccc2c1Cl (stereo partly shown) [drawing 32] | 1240 |  | 
14 | O=C(O)CCC/C=C\C[C@H]1C(=O)C[C@@H](CO)[C@@H]1/C=C/C(O)CCc1sc2ccccc2c1Cl (stereo partly shown) [drawing 33] | 1790 |  | 
15 | COC(=O)CCC/C=C\C[C@H]1C(=O)C[C@@H](CO)[C@@H]1/C=C/C(O)Cc1cc2ccccc2s1 (stereo partly shown) [drawing 34] | > 10000 |  | EC50 (hTP): > 10000 nM; EC50 (hEP1): > 10000 nM
16 | COC(=O)CCC/C=C\C[C@H]1C(=O)C[C@@H](CO)[C@@H]1/C=C/C(O)Cc1cc2ccccc2s1 (stereo partly shown) [drawing 35] | > 10000 |  | EC50 (hEP2/Gqs5): > 10000 nM; EC50 (hTP): > 10000 nM; EC50 (hEP3A/Gqi5): 9000 nM; EC50 (hEP1): > 10000 nM
17 | COC(=O)CCC/C=C\C[C@H]1C(=O)CC[C@@H]1/C=C/C(O)CCc1sc2ccccc2c1Cl (stereo partly shown) [drawing 38] | 515 |  | 
18 | COC(=O)CCC/C=C\C[C@H]1C(=O)CC[C@@H]1/C=C/C(O)CCc1sc2ccccc2c1Cl (stereo partly shown) [drawing 39] | 862 |  | EC50 (hTP): > 10000 nM
19 | O=C(O)CCC/C=C\C[C@H]1C(=O)CC[C@@H]1/C=C/C(O)CCc1sc2ccccc2c1Cl (stereo partly shown) [drawing 41] | 25 | 110 | IC50 (HEP3D): 3700 nM; EC50 (hTP): > 10000 nM; EC50 (hEP3A/Gqi5): > 10000 nM

Source: patent US7101906B2, “2,3,4-substituted cyclopentanones as therapeutic agents” (Allergan, Inc., priority 2004, dated 2006)
